Measurements: paper PMC8399565, “Fluorescence Cross-Correlation Spectroscopy Yields True Affinity and Binding Kinetics of Plasmodium Lactate Transport Inhibitors” (Pharmaceuticals, 2021)
Entries after “also recorded” stand apart in the source; their conditions may differ. Read-outs that look alike come from different tables or passages of the source.

Columns and labels:
[1] = target: T1, PfFNT wt-GFP (Plasmodium falciparum, UniProt O77389); test: FCCS equilibrium saturation binding to solubilized PfFNT wildtype; conditions: for Active Receptor (%): fraction of PfFNT-GFP involved in binding at saturation; for obtained concentration of complexes in saturation binding: same sample of solubilized membranes for both tracers
T1 construct: The DNA of full-length PfFNT from Plasmodium falciparum 3D7 was cloned as a C-terminal GFP fusion; expressed in transfected cells; intact cells for imaging, LMNG-solubilized membranes or lysates for FCCS
Experimental: A total of 20 µL of solubilized membranes from HEK cells expressing PfFNT wildtype or G107S were transferred to a glass-bottom 384-well microtiter plate and analyzed for expression levels via GFP fluorescence intensity as well as diffusion times. This yielded a PfFNT protein concentration of 10 nM after membrane preparation and solubilization. The average dwell time was determined to 373 µs, which is in good agreement with membrane proteins of equal size. The signal fluctuations could be fitted to a 1-component diffusion model, indicating homogeneously monodisperse proteins (Figure S2).
Next, we determined inhibitor binding affinities for both PfFNT and its G107S mutant. Solubilized cell membranes containing PfFNT-GFP at a concentration of 10 nM were incubated for 1 h at ambient temperature with increasing concentrations of labeled inhibitor molecules to obtain saturation binding curves and to calculate the dissociation constant (KD) of the interactions. Equilibrium binding experiments were pipetted in biological triplicates and carried out and analyzed as described in Antoine et al..
A cell pellet was resuspended in 1 mL of ice-cold TBS (50 mM Tris-HCl (pH 7.4) and 150 mM NaCl) supplemented with cOmplete™ Protease Inhibitor Cocktail (cat. no 11697498001, Roche, Switzerland) and broken by sonication on ice, using an Ultrasonic homogenizer SONOPULS HD 2070 (Bandelin, Germany). Cell debris was removed by centrifugation for 5 min at 1100× g at 4 °C, and membranes were harvested from the cleared lysate by subsequent centrifugation at 21,000× g. The resulting pellet containing cellular membranes was lysed using a Dounce homogenizer. The receptor was solubilized by incubation in 1% LMNG (cat. no NG310, Anatrace, USA) or in another detergent (DDM, DM, CHAPS, CHS, LDAO) when conducting tests to determine the best solubilization conditions. The insolubilized membrane material was removed by centrifugation for 1 h at 21,000× g at 4 °C, and the supernatant was collected and directly subjected to FCCS analysis or stored at −80 °C.
(§1) FCCS measurements were conducted in 384-well glass-bottom plates (cat. no PS96B-G175, SWISSCI, Switzerland) using an Insight plate reader (Evotec Technologies, Germany) fitted with a U-Apo300 40x water immersion lens, NA 1.15 (Olympus, Japan). The 488 nm laser line of an argon-ion laser and the light of a 633 nm helium–neon laser were used for excitation. Fluorescence fluctuations were recorded for 8 s with 12 repetitions and analyzed afterward using FCS+plus Analyze 1.1P (Evotec technologies, Version 1.2.5g). FCCS analysis was carried out as described previously. Briefly, for measuring the dissociation constant (KD), a titration series of 12 dilutions was prepared, where the concentration of the lysates obtained from HEK cells expressing GFP-fusions of PfFNT WT and G107S was kept constant, and the concentration of the labeled binding partner (BH296-DY647 and BH267.meta-DY647, respectively) was varied. The IC50 values were calculated by plotting the concentration from the dual labeled complex against the concentration of the competitor titrated over a concentration range from 10 µM to 10 pM. Samples were incubated for 1 h at room temperature prior to FCCS measurements to allow the formation of drug target complexes. From the resulting IC50 values, the Ki values were obtained by application of the Cheng Prusoff equation [17]. To assess the rate constants, time-resolved measurements were carried out at different concentrations of the labeled ligand. […] All KD and IC50 values, as well as kinetic parameters, were determined from three independently repeated experiments. The figures show one representative measurement; however, the calculated KD, Ki, kon and koff values are presented as an average of the three measurements ± SD. Error bars denote ± SEM.

[2] = target: T2, PfFNT G107S-GFP (Plasmodium falciparum, UniProt O77389, G107S); test: FCCS equilibrium competition binding, PfFNT G107S mutant
T2 construct: The DNA of full-length PfFNT from Plasmodium falciparum 3D7 was cloned as a C-terminal GFP fusion; expressed in transfected cells; intact cells for imaging, LMNG-solubilized membranes for FCCS
Experimental: Figure 4 Affinity determination of BH296, BH267.meta to PfFNT and PfFNT G107S, and equilibrium saturation binding of BH296 and BH267.meta to PfFNT and PfFNT G107S. […] BH267.meta bound to 100% of the GFP-fusions of wildtype PfFNT. […] (c) Membrane preparations containing 10 nM of PfFNT-GFP were incubated with 70 nM BH296-DY647, and associated complexes competed with free compounds BH267.meta and BH296 to assess their Ki values. […] (e) Membrane preparations containing GFP fusions of mutant PfFNT G107S were mixed with 150 nM of the labeled BH267.meta tracer and competed with BH267.meta and BH296.
The Ki values calculated for the interaction of BH296 and BH267.meta to mutant PfFNT G107S confirm the affinities observed for the direct interaction with labeled inhibitors.
as §1, with “varied.” for “varied. The IC50 values were calculated by plotting the concentration from the dual labeled complex against the concentration of the competitor titrated over a concentration range from 10 µM to 10 pM. Samples were incubated for 1 h at room temperature prior to FCCS measurements to allow the formation of drug target complexes. From the resulting IC50 values, the Ki values were obtained by application of the Cheng Prusoff equation [17]. To assess the rate constants, time-resolved measurements were carried out at different concentrations of the labeled ligand.”, “Error bars denote ± SEM.” left out

[3] = test system: FNT-type lactate transporters of the remaining four human-pathogenic plasmodia; conditions: cited from earlier work
[4] = target: T3, hsMCT4 (Homo sapiens, UniProt O15427); test: Live cell confocal imaging, co-localization with hsMCT4-GFP in HEK cells; format: cell-based; conditions: 50 nM BH296-DY647, hsMCT4-GFP in HEK cells
T3 construct: expressed in transfected cells
T3 sequence (O15427 1-465): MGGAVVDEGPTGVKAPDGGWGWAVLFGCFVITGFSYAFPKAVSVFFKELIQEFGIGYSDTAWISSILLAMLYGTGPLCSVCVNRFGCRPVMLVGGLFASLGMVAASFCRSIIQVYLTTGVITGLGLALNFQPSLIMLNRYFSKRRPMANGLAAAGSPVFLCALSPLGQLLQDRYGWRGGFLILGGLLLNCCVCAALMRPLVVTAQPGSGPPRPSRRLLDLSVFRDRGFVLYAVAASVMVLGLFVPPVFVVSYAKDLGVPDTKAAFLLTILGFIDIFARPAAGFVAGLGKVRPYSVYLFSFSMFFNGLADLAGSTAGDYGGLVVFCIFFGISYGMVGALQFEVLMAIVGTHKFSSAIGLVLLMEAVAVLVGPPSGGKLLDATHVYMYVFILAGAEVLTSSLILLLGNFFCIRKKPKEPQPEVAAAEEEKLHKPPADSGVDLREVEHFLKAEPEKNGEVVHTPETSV
Experimental: The monocarboxylate transporter hsMCT4 is a human functional homolog of PfFNT, but both proteins show no similarity on the basis of their primary sequence or transport mechanism.
The confocal laser scanning microscopy was performed on an LSM 510 confocal microscope connected to an Axiovert 200M equipped with a C-Apochromat 40×/1.2 W water immersion objective (Carl Zeiss, Germany). The red fluorophore (Dy-647) was excited using a 633 nm helium–neon laser, whereas the green fluorophore (GFP) was excited using a 488 nm argon-ion laser.

T1 sequence (O77389 whole entry, the tested form may be a part): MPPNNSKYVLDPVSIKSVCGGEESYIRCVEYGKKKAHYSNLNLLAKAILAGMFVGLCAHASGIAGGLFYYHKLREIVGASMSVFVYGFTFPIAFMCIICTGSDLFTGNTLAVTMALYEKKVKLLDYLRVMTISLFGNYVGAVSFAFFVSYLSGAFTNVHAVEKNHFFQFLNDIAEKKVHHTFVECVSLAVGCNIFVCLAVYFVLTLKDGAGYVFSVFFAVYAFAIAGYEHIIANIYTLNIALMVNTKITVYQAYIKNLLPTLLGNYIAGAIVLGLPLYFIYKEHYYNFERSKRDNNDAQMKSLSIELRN
T2 sequence (O77389 whole entry G107S, the tested form may be a part): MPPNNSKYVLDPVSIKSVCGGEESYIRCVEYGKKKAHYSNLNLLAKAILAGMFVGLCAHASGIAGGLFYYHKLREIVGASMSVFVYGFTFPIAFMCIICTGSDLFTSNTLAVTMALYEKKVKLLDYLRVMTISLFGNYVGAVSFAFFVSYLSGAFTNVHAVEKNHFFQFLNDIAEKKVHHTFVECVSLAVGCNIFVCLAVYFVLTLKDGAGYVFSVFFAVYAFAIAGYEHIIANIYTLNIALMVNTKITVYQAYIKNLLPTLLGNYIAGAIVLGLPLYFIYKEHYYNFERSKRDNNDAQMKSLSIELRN

| Compound | Kd ([1]; fluorescent probe titrated against 10 nM PfFNT-GFP, 1% LMNG, 1 h ambient temperature, read-out: KD (equilibrium saturation binding)) | Active Receptor (%) [1] | obtained concentration of complexes in saturation binding [1] | Ki ([2]; fluorescent probe BH267.meta-DY647 150 nM, competitor up to 10 µM, read-out: Ki Competitor) | concentration blocking FNT-type lactate transporters [3] | Kd [1] | co-localization on the plasma membrane [4] | Ki [2] | Ki Competitor ([2]; fluorescent probe BH267.meta-DY647 150 nM, competitor up to 10 µM) |
| --- | --- | --- | --- | --- | --- | --- | --- | --- | --- |
| O=C(/C=C(\O)C(F)(F)C(F)(F)F)c1cccnc1 [BH267.meta] | 72 nM | 100% | 6 nM | 417 ± 16 nM | sub-micromolar |  |  |  |  |
| CCN1/C(=C/C=C/C=C/C2=[N+](CC)c3ccc(S(=O)(=O)O)cc3C2(C)CCCC(=O)NCCOCCOCCOCCOCCC(=O)NCCCOc2ccc(C(=O)/C=C(\O)C(F)(F)C(F)(F)F)cc2)C(C)(C)c2cc(S(=O)(=O)[O-])ccc21 (stereo not shown) [BH296-DY647] |  |  |  |  |  | 67 ± 6 nM | did not show any co-localization |  |  |
| CCN1/C(=C/C=C/C=C/C2=[N+](CC)c3ccc(S(=O)(=O)O)cc3C2(C)CCCC(=O)NCCOCCOCCOCCOCCC(=O)NCCCOc2ccc(C(=O)/C=C(\O)C(F)(F)C(F)(F)F)cn2)C(C)(C)c2cc(S(=O)(=O)[O-])ccc21 (stereo not shown) [BH267.meta-DY647] |  | 100% |  |  |  | 72 nM |  |  |  |
| O=C(C=C(O)C(F)(F)C(F)(F)F)c1ccc(O)cc1 [BH296, 4,4,5,5,5-pentafluoro-3-hydroxy-1-(4-hydroxyphenyl)pent-2-en-1-one] |  |  | 3 nM |  |  | 67 nM |  | > 10000 nM | did not compete; also recorded: does not interfere |
